Assay results from patent US9072741B2, “Methods of treating liver fibrosis and pre-cirrhosis with epidermal growth factor receptor inhibitors” (The General Hospital Corporation, priority 2009, dated 2015).

Experiments:
[1] = tested on: activated hepatic stellate cells; test: α-SMA staining of liver sections for activated hepatic stellate cells in DEN-treated rats; type: in vivo, male Wistar rats
Experimental: FIGS. 2B-2G are a series of six panels showing representative pictures of Masson's trichome (B-D) and α-SMA stains (E-G) of liver sections from rats receiving weekly intraperitoneal injections of DEN (50 mg/kg) for 18 weeks and (B and E) vehicle only, (C and F) 0.5 mg/kg erlotinib (Erl 0.5), or (D and G) 2 mg/kg erlotinib (Erl 2) during weeks 12-18.
FIGS. 6B-6E are a series of four panels showing representative pictures of Masson's trichrome (B-C) and α-SMA stains (D-E) of liver sections from rats receiving weekly intraperitoneal injections of DEN (50 mg/kg) for 18 weeks and (B and D) vehicle only or (C and E) 18 mg/kg lapatinib during weeks 12-18.
Repeated injury to the liver causes damage to hepatocytes and activates resident macrophages called Kupffer cells. Damaged hepatocytes and activated Kupffer cells secrete cytokines and growth factors into the liver milieu, which activate hepatic stellate cells (Friedman, Gastroenterology 134:1655-69, 2008). Normally, hepatic stellate cells are quiescent and store vitamin A and fat. Upon activation, they differentiate into a myofibroblast-phenotype and express α-smooth muscle actin (α-SMA) (Friedman, Gastroenterology 134:1655-69, 2008). […] The degree of liver disease (fibrosis versus cirrhosis) is pathologically assessed through trichrome staining of collagen by the method of Ishak (Mod Pathol 7:690-713, 1994). […]

[2] = tested on: DEN-induced hepatotoxicity and liver failure; test: Liver function tests on serum (AST, TBIL, Glu) of DEN-treated rats; type: in vivo, male Wistar rats; conditions: n=4
Experimental: FIGS. 4A, 4B, and 4C are a series of three bar graphs showing the levels of (A) aspartate transaminase (AST), (B) total bilirubin (TBIL), and (C) total glucose (Glu) in serum from rats treated with PBS for 18 weeks or DEN (50 mg/kg) for 18 weeks plus either vehicle, 0.5 mg/kg erlotinib (Erl 0.5), or 2 mg/kg erlotinib (Erl 2) during weeks 12-18. *, significant.
FIGS. 7A, 7B, and 7C are a series of three bar graphs showing levels of (A) aspartate transaminase (AST), (B) total bilirubin (TBIL), and (C) total glucose (Glu) in serum from rats treated with DEN (50 mg/kg) for 18 weeks plus either vehicle or 18 mg/kg lapatinib during weeks 12-18. *, significant.
During fibrosis, hepatic stellate cells are activated and deposit fibrous collagen into the space of Disse, the area between the hepatocytes and the sinusoid containing blood plasma. The deposition of collagen inhibits the normal exchange of nutrients and wastes between the hepatocytes and plasma resulting in hepatotoxicity and liver failure. The degree of liver toxicity and failure can be assessed by measuring several proteins or a carbohydrate present in the serum. For example, aspartate aminotransferase (AST) is an enzyme present in hepatocytes that is released into the serum when hepatocytes die. Bilirubin (TBIL) is the breakdown product of heme and its levels become elevated in the serum if hepatocytes cannot properly metabolize it. Finally, liver failure will result in lower levels of glucose (Glu) production causing serum Glu levels to drop.
The levels of AST, TBIL, and Glu were assayed in serum from rats treated with erlotinib. Male Wistar rats (n=4) were treated with PBS for 18 weeks or a weekly intraperitoneal injection of 50 mg/kg DEN for 18 weeks plus either vehicle, 0.5 mg/kg erlotinib (Erl 0.5), or 2 mg/kg erlotinib (Erl 2) between weeks 12 and 18. Whole blood was isolated from the rats and allowed to clot for 2 hours at room temperature. The blood was then spun at 2,000 rpm for 10 minutes and serum (top layer) was isolated. Liver function tests were performed on serum from the rats. In the current model, intraperitoneal administration of DEN causes both hepatotoxicity and liver failure to increase over time as assessed by these three markers. However, compared to vehicle controls, erlotinib reduced the degree of hepatotoxicity and liver failure in a dose-dependent fashion. Specifically, erlotinib decreased serum levels of AST and TBIL and increased serum levels of Glu (FIGS. 4A-C).
Levels of AST, TBIL, and Glu were assayed in serum from rats treated with lapatinib. Male Wistar rats (n=4) were treated with PBS for 18 weeks or a weekly intraperitoneal injection of 50 mg/kg DEN for 18 weeks plus either vehicle or 18 mg/kg lapatinib between weeks 12 and 18. Whole blood was isolated from the rats and allowed to clot for 2 hours at room temperature. The blood was then spun at 2,000 rpm for 10 minutes and serum (top layer) was isolated. Liver function tests were performed on serum from the rats. In the current model, intraperitoneal administration of DEN causes both hepatotoxicity and liver failure to increase over time as assessed by these three markers. However, compared to vehicle controls, lapatinib reduced the degree of hepatotoxicity and liver failure. Specifically, lapatinib decreased serum levels of AST and TBIL and increased serum levels of Glu (FIGS. 7A-C).

[3] = 18 mg/kg weeks 12-18 vs vehicle
[4] = 0.5 and 2 mg/kg weeks 12-18 vs vehicle, dose-dependent

Row | Compound | activation of hepatic stellate cells (α-SMA staining) [1, 3] | serum level of AST [2, 3] | serum level of Glu [2, 3] | serum level of TBIL [2, 3] | activation of hepatic stellate cells (α-SMA staining) ([1]; 0.5 and 2 mg/kg weeks 12-18 vs vehicle) | serum level of AST [2, 4] | serum level of Glu [2, 4] | serum level of TBIL [2, 4]
1 | CS(=O)(=O)CCNCc1ccc(-c2ccc3ncnc(Nc4ccc(OCc5cccc(F)c5)c(Cl)c4)c3c2)o1 [lapatinib, 4-Quinazolinamine, N-(3-chloro-4-((3-fluorophenyl)methoxy)phenyl)-6-(5-(((2-(methylsulfonyl)ethyl)amino)methyl)-2-furanyl)] | dramatically decreased the activation of hepatic stellate cells in a dose-dependent fashion | decreased | increased | decreased |  |  |  | 
2 | C#Cc1cccc(Nc2ncnc3cc(OCCOC)c(OCCOC)cc23)c1 [erlotinib, 4-Quinazolinamine, N-(3-ethynylphenyl)-6,7-bis(2-methoxyethoxy)] |  |  |  |  | dramatically decreased the activation of hepatic stellate cells in a dose-dependent fashion | decreased | increased | decreased
